Data taken from patent publication US12577232B2, “N-heterocycle substituted tryptamine derivatives and methods of using” (ENVERIC B[…] INC., priority 2024, dated 2026).
Several values for one entry are separate records, joined by “and”; a condition that tells them apart may be missing. Equal entries are not always repeated. Where two headings read alike, the source gives them in different places.

What was measured:
[1] = target: T1, human serotonin transporter (SERT) (Homo sapiens, UniProt P31645); assay: biochemical; type: binding
T1 construct: purchased PerkinElmer RBHSTM400UA
T1 sequence (P31645 whole entry): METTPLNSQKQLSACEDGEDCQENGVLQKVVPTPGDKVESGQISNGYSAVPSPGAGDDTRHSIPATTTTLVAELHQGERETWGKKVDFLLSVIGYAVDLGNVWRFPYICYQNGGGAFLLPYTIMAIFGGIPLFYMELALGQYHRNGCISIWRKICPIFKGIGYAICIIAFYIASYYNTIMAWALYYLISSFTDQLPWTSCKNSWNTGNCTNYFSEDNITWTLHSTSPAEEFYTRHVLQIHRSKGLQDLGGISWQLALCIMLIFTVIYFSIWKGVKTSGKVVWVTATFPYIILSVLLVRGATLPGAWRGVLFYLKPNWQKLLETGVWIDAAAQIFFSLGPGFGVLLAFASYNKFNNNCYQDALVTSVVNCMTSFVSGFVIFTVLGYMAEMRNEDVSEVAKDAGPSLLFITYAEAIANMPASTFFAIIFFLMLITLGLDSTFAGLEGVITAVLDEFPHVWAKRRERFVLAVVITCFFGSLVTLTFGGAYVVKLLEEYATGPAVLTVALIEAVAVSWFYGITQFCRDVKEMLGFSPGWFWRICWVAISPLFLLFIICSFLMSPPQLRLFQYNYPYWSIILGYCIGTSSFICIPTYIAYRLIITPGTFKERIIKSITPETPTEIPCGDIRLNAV
Procedure: A commonly applied SERT binding assay involves competition binding assays employing radiolabelled ligands. […] Radioactive binding assays were carried out using the Scintillation Proximity Assay (SPA). For saturation binding assay, mixtures of 9 μg of membrane containing human SERT was pre-coupled to 1 mg of SPA beads at room temperature in a tube rotator for 1 hour in binding buffer (50 mM Tris-HCl pH7.4, 120 mM NaCl, 5 mM KCl, 1 mM ascorbic acid, 10 μM pargyline HCl). […] After incubation, the samples are read on a MicroBeta 2 Microplate Counter. Non-specific binding was carried out in the presence of 200 μM of clomipramine hydrochloride (C7291-1G, Sigma). Equilibrium binding constant for imipramine (KD) was determined from saturation binding curve using one-site saturation binding analysis from GraphPad PRISM software (Version 9.2.0). All test compounds were dissolved to 100 mM in DMSO and dilutions were carried out in assay buffer. […] Ki values were calculated from the competition displacement data using the competitive binding analysis from GraphPad PRISM software. […] Vehicle (DMSO) without drug was used as a negative control.

[2] = test system: human model (NT2) neurons; assay: Neuroplastogenicity (neurite outgrowth) assay in NT2 neurons; type: cell-based; parameters: key: a positive (+) designation indicating strong evidence of enhanced neurite outgrowth in drug-treated NT2 cells compared to vehicle-treated cells; a negative (−) designation indicating weak or no evidence of enhanced neurite outgrowth in drug-treated NT2 cells compared to vehicle-treated cells; settings: 1 or 10 μM, 48 h, visual inspection vs vehicle (0.1% DMSO)
Excerpt: Classic psychedelics such as psilocybin and DMT show potential to treat anxiety and depression, and it has been theorized that such long-term improvements arise because these drugs rapidly and lastingly stimulate neuroplasticity (Calder and Hasler, 2023, Neuropsychopharmacol. 48:104-112). Thus, it was of interest to determine the potential of new compounds as neuroplastogens. Herein, we assess the capacity of various compounds to enhance neurite outgrowth in human model (NT2) neurons.
Human NT2/D1 precursor cells were purchased from the American Type Culture Collection (ATCC, Manassas, VA, USA). Neuronal differentiation was carried out as previously described (Roloff et al., 2015, PloS ONE 10:e0118536) with minor modifications. Firstly, NT2/D1 cells were seeded in T-25 suspension culture flasks (REF #690190, Greiner bio-one, Germany). Each flask contains a minimum of 5×10^6 cells in 10 ml of DMEM/F12 supplemented with 10% fetal bovine serum (FBS), 1% penicillin and streptomycin and 10 μM retinoic acid (RA) medium to start neuronal differentiation. The cells were cultured for 3 days in free floating medium. At the end of the incubation cells were trypsinized and collected by centrifugation, mechanically dispersed, and counted. Counted cells were seeded along Poly D-Lysine (PDL) coated cover slips (12 mm; diameter round, Fisher Scientific; GG-12-PDL) containing a minimum of 0.1×10^5 cells in culture medium without RA. The next day culture medium was replaced with RA medium containing 2% of FBS. These cells cultured for 5 days and two days later, RA medium was changed.
After cells had successfully attached and established along coverslips, the RA medium was replaced with new medium containing 2% FBS and one of the following: (1) test compound (1 or 10 μM), (2) RhoK (ROCK) inhibitor Y-27632 (1 μM) as a positive control (Dihydrochloride; Sigma-Aldrich) (Roloff et al., 2015, PloS ONE 10:e0118536); (3) DMT (1 or 10 μM) as a positive control (Calder and Hasler, 2023, Neuropsychopharmacol. 48:104-112), or (4) vehicle (0.1% DMSO) as a negative control. These cells were incubated for 48 hours under standard conditions (370C, 5% CO2). The cells cultured along coverslips were collected after 48 hours of treatment. The coverslips washed with calcium chloride and magnesium chloride-free phosphate buffered saline (PBS) pH 7.4 (Gibco, #70011-044) and fixed in paraformaldehyde (PFA) 4% in PBS (#J61899, thermoscientific) for 15 min at room temperature (RT) and washed three times with 0.01% of Triton-X100 in PBS (PBST) to remove remaining PFA and to permeabilize the cells. Non-specific binding sites were blocked with 5% of Bovine Serum Albumin (BSA) solution (#9048-46-8, Millipore) in PBST for 60 minutes at RT. Rabbit monoclonal antibody β-III-tubulin (1:5,000, ab52623, Abcam) was applied overnight (O/N) at 4° C. Next day cells are washed three times in PBST, neurons were incubated with secondary antibody Donkey anti-rabbit IgG(H+L) Alexa Fluor™ Plus488 (1:5000 #A32790, Invitrogen) for 1 hour at RT. These coverslips were mounted on Gluoromount-G™, with 4′6-diamidino-2′henylindoldihydrochloride (DAPI) (#E141818, Invitrogen). The immunofluorescence images were analyzed using an Olympus VS110 slide scanner microscope.
B-III-Tubulin immunofluorescence was quantified using ImageJ. Briefly, Corrected Total Cell Fluorescence (CTCF) was acquired for at least ˜8-10 representative cells, where CTCF=Integrated Density−[Area of selected cell*Mean Fluorescence of background]. The CTCF values, referred to herein as ‘signal intensities’, were used to calculate overall means±SD for each treatment. One-Way ANOVA was used to compare treatments. Further, the mean of each treatment was compared with the mean of the control treatment (RA-differentiated cells treated with vehicle, 0.1% DMSO) using Dunnett's multiple comparison procedure. […]

5-HT2A receptor = target: T2, 5-HT2A receptor (Homo sapiens, UniProt P28223); assay: 5-HT2A receptor radioligand competition assay (SPA, [3H]ketanserin); type: binding; settings: 1 nM [3H]ketanserin, membranes containing 5-HT2A
T2 construct: purchased PerkinElmer ES-313-M400UA
T2 sequence (P28223 whole entry): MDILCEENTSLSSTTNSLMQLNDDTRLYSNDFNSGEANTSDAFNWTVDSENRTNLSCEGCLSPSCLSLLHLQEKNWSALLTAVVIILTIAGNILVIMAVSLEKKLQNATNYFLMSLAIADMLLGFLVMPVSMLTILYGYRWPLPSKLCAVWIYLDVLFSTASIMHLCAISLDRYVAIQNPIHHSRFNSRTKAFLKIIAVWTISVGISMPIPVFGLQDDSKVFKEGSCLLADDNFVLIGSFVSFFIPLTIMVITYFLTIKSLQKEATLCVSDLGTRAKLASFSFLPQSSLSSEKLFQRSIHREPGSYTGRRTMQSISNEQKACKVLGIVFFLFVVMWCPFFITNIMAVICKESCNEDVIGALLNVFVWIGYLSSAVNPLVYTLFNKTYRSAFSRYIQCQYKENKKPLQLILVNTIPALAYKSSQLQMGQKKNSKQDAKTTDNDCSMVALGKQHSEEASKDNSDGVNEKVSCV
Procedure: Competition assays were performed as for 5-HT1A assays with the following differences. […] Determination of non-specific binding was carried out in the presence of […] of spiperone (S7395-250MG, Sigma-Aldrich). Equilibrium binding constant for ketanserin (Kd) was determined from saturation binding curves using the ‘one-site saturation binding analysis’ method in GraphPad PRISM software (Version 9.2.0).

C57BL/6 mice = assay: Mouse Head Twitch Response (HTR) assay to assess hallucinogenic potential; type: in vivo; settings: 3 mg/kg i.p.; for mean HTR: 0-15 min interval (preliminary screening); for HTR compared with the HTR response for 5-Br-DMT (one-way ANOVA, Dunnett): alpha 0.05
Procedure: All experiments were approved by the University of Calgary Animal Care and Use Committee in accordance with Canadian Council on Animal Care guidelines. C57BL/6-Elite mixed sex mice were obtained from Charles River (8 weeks old). Until the first experiment, mice were group-housed, then single-housed on a 12:12 h light/dark schedule (lights on at 07:00 hours) with ad libitum access to food and water. Before any behavioral screening, mice were handled and exposed to the testing chamber for at least 5 min each day for three successive days and habituated to the experimental room 1 h before testing. The testing chamber was cleaned with a 70% ethanol solution between experiments to eliminate odor from other mice. Drug compounds (100 mM in DMSO) were diluted in sterile excipient (10% EtOH/15% PEG400 in ddH2O) to 3 mg/kg (preliminary screening) or 0.5, 2, 4, 7, and 10 mg/kg (dose-curve analysis) and administered using intraperitoneal (i.p.) drug injections. […] HTR was analyzed during the 0-to-15-minute window following drug administration. […] Mean HTR between 10 and 5 signifies reduced hallucinogenic potential relative to positive controls.

5-HT1A receptor = target: T3, 5-HT1A receptor (Homo sapiens, UniProt P08908); assay: 5-HT1A receptor radioligand competition assay (SPA, [3H]8-hydroxy-DPAT); type: binding; settings: 0.5 nM hot 8-hydroxy-DPAT; membranes containing 5-HT1A
T3 construct: purchased Perkin Elmer 6110501400UA
T3 sequence (P08908 1-422): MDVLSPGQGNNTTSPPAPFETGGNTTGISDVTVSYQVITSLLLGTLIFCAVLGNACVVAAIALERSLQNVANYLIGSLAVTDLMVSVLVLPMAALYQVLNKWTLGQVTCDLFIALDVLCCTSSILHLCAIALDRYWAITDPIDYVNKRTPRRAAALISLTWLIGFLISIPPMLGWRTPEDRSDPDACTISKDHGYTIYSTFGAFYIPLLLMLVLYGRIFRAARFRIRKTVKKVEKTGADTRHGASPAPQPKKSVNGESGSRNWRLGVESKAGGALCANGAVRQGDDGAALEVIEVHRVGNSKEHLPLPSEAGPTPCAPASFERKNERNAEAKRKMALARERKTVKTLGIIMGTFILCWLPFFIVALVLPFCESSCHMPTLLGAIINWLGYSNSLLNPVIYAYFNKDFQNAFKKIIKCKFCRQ
Procedure: 5-HT1A receptor. […] After incubation, the samples were read on a MicroBeta 2 Microplate Counter (perkinelmer.com). Non-specific binding was carried out in the presence of 100 μM of metergoline (M3668-500MG, Sigma-Aldrich). Equilibrium binding constant for 8-hydroxy-DPAT (KD) was determined from a saturation binding curve using one-site saturation binding analysis from GraphPad PRISM software (Version 9.2.0). Test compound was dissolved to 100 mM in dimethylsulfoxide (DMSO), and dilutions were carried out in assay buffer. […] Ki values were calculated from the competition displacement data using the competitive binding analysis from GraphPad PRISM software. […] Conversely, blank preparations lacking any drug (simply termed ‘DMSO’ samples) were used as negative controls, in addition to those containing tryptophan which is not known to bind the 5-HT1A receptor.

[3] = 1 nM imipramine, membranes containing human SERT, read-out: SERT, Ki

SMILES	Ki [1, 3] [µM]	Evidence of neurite outgrowth: Yes (+) or No (−) [2]	Ki (5-HT2A receptor; 5-HT2A, Ki) [µM]	mean HTR (C57BL/6 mice)	HTR compared with the HTR response for 5-Br-DMT (one-way ANOVA, Dunnett) (C57BL/6 mice)	Ki (5-HT2A receptor; read-out: 5-HT2A, Ki)	Ki (5-HT1A receptor) [µM]	Ki [1] [µM]
CN(C)CCc1c[nH]c2ccccc12 [DMT, dimethyltryptamine, reference compound]	2.58	+	1.03					
CCN(CC)CCc1c[nH]c2cc(F)cc(N3CCOCC3)c12 [Compound (XXVII)]		−		8.0	not statistically significantly higher	5.4 µM and 5.38 µM		
CNC(C)Cc1ccc2c(c1)OCO2 (centres unmarked) [MDMA, 3,4-methylenedioxymethamphetamine, reference compound]						39.9 µM	11	5.8
COc1cc(CCN)c(OC)cc1Br [Compound 2C-B, reference compound]	11.4							
CN(C)CCc1c[nH]c2cc(N3CCOCC3)ccc12 [Compound (VIII)]		−		8.0	not statistically significantly higher	10.9 µM		
CN(C)CCc1c[nH]c2cc(N3CCOCC3)c(F)cc12 [Compound (XI)]		−		10.5		0.71 µM		
CN(C)CCc1c[nH]c2ccc(N3CCOCC3)cc12 [Compound (V)]		+		7.8	not statistically significantly higher	15 µM		
CN(C)CCc1c[nH]c2cc(F)c(N3CCOCC3)cc12 [Compound (VII)]		+		7.75	not statistically significantly higher	63.9 µM		
